# From patent US5672603A, “Apoptosis regulating composition” (Otsuka Pharmaceutical Co., Ltd., priority 1991, dated 1997)
# Numbered stars: 1 amine (or outer) side, 2 acyl side, 3 side chain; on linkers, the order of the positions; unused ones are H or OH. Bridge positions count the residues as written; N and C are the ends. Square brackets hold non-standard residues; d marks the D form. Peptide text beside a SMILES is read from it. I, II: the chains in the order shown. Actinocin(9to1) = Cc1c2oc3c(C)ccc(C(=O)[*:1])c3nc-2c(C(=O)[*:2])c(N)c1=O; NMeV = CN[C@H](C(=O)O)C(C)C; Sar = CNCC(=O)O
# Key:
# HL-60 cells [1] = test: HL-60 cell growth inhibition, 3 days; format: cell-based; settings: Homo sapiens, HL-60, 72 h, 30 μg/ml, read-out: Cell growth inhibiting effect (%)
# Protocol: (§1) HL-60 cells were cultivated in RPMI-1640 medium supplemented with 10% of FCS at 37° C. under 5% CO2, and the cell concentration was adjusted to 5×10^4 cells/ml.
# (§2) Then, the above-mentioned medium containing 30 μg/ml of each test compound was added to each well of 6-well microplates (Costar), followed by 3 days of incubation at 37° C. under 5% CO2. In a control group, the above medium alone was added and incubation was performed in the same manner. Thereafter, each cultured cell suspension was sampled into an Eppendorf tube and, after staining with 0.2% trypan blue-containing phosphate buffer, viable cells were counted using a hematocytometer.
# HL-60 cells [2] = test: Induction of differentiation of HL-60 cells (CD11b expression, flow cytometry); format: cell-based, human; set-up: reference not given here; settings: 30 μg/ml; 3 days; CD11b fluorescence
# Protocol: as §1, §2
# The above cells were adjusted to 1×10^7 cells/ml. To 100 μl of the cell suspension was added 5 μl of a solution of fluorescein isothiocyanate (FITC)-labeled anti-human CD11b antibody (Mol; Coulter) and the reaction was allowed to proceed on ice in the dark for 30 minutes. Then, cells were washed twice with PBS (phosphate-buffered saline; Nissui Pharmaceutical) containing 0.1% of BSA (bovine serum albumin; Sigma), finally suspended in 500 μl of the BSA-containing PBS and measured for fluorescence intensity by flow cytometry using Profile II (Coulter).
# apoptosis = settings: literature; cited from earlier work
# nerve cells = settings: administration in advance; literature; cited from earlier work
# sympathetic nerve cells = settings: literature; cited from earlier work
# [3] = system: aged rats with learning disorder; settings: literature; cited from earlier work
# PC12 cells = test: Effect on PC12 cells (morphology, phase contrast microscope); settings: NGF alone group, 0.3% FCS
# Protocol: PC12 cells subcultured in Dulbecco's modified Eagle's medium (D-MEM) supplemented with 5% heat-inactivated (56° C., 30 minutes) horse serum and 10% fetal calf serum (FCS) were transferred onto collagen-coatedplastic Petri dishes (35 mm in diameter) at a concentration of 6×10^4 cells/3 ml medium.
# HL-60 cells [4] = settings: literature; cited from earlier work
# lymphocytic tumor cells = settings: X-ray radiation; literature; cited from earlier work
# [5] = system: small intestine crypt cells; settings: literature; cited from earlier work
# acute leukemia cells = settings: literature; cited from earlier work
molecule,measurement,setting,value
"COc1ccc(C(=O)N2CCN(c3cccc4c3NC(=O)CC4)CC2)cc1OC [Compound 8, 8-[4-(3,4-Dimethoxybenzoyl)-1-piperazinyl]-3,4-dihydrocarbostyril]",inhibition at 30 µg/mL,HL-60 cells [1],24.9%
same,Induction of differentiation promoting effect,HL-60 cells [2],344
"COc1ccc(C(=O)N2CCN(c3ccc4[nH]c(=O)ccc4c3)CC2)cc1OC [Compound 7, 6-[4-(3,4-Dimethoxybenzoyl)-1-piperazinyl]carbostyril]",inhibition at 30 µg/mL,HL-60 cells [1],24.1%
same,Induction of differentiation promoting effect,HL-60 cells [2],898
bcl-2 gene product: bcl-2 gene product,Repression of apoptosis,apoptosis,repress apoptosis
"COc1cc(C(=O)N2CCN(c3ccc4c(c3)CCC(=O)N4)CC2)cc(OC)c1OC [Compound 2, 6-[4-(3,4,5-Trimethoxybenzoyl)-1-piperazinyl]-3,4-dihydrocarbostyril]",inhibition at 30 µg/mL,HL-60 cells [1],20.2%
"COc1ccc(C(=O)N2CCN(c3cccc4c3CCC(=O)N4)CC2)cc1OC [Compound 6, 5-[4-(3,4-Dimethoxybenzoyl)-1-piperazinyl]-3,4-dihydrocarbostyril]",Induction of differentiation promoting effect,HL-60 cells [2],303
"NGF: nerve growth factor (NGF, Wako Pure Chemical)",Nerve cell death in development stage,nerve cells,complete inhibition of nerve cell death
same,Programmed death of sympathetic nerve cells,sympathetic nerve cells,can inhibit programmed death of sympathetic nerve cells
same,Recovery from learning disorder,[3],can recover from learning disorder
same,"Formation of nerve-like processes, NGF stimulation",PC12 cells,formation of nerve-like processes
"Cc1c2oc3c(C)ccc(C(=O)N[C@@H]4C(=O)N[C@H](C(C)C)C(=O)N5CCC[C@H]5C(=O)N(C)CC(=O)N(C)[C@@H](C(C)C)C(=O)O[C@@H]4C)c3nc-2c(C(=O)N[C@@H]2C(=O)N[C@H](C(C)C)C(=O)N3CCC[C@H]3C(=O)N(C)CC(=O)N(C)[C@@H](C(C)C)C(=O)O[C@@H]2C)c(N)c1=O [actinomycin D] (I: T[dV]P[Sar][NMeV] / II: T[dV]P[Sar][NMeV]; ester I:1-I:C, II:1-II:C; linker I:N-II:N via Actinocin(9to1))",Repression of apoptosis,apoptosis,capable of repressing apoptosis
same,Apoptosis induction in HL-60 cells,HL-60 cells [4],apoptosis induction
same,Apoptosis of lymphocytic tumor cells,lymphocytic tumor cells,potentiates
same,Apoptosis induction in small intestine crypt cells,[5],apoptosis induction
C[C@@H]1C[C@@H]([C@H](O)CC2CC(=O)NC(=O)C2)C(=O)[C@@H](C)C1 [cycloheximide],Apoptosis induction in acute leukemia cells,acute leukemia cells,apoptosis induction
same,Repression of apoptosis,apoptosis,capable of repressing apoptosis
same,Apoptosis induction in HL-60 cells,HL-60 cells [4],apoptosis induction
same,Apoptosis of lymphocytic tumor cells,lymphocytic tumor cells,suppresses
"CCOc1ccc(C(=O)N2CCN(c3ccc4c(c3)CCC(=O)N4)CC2)cc1 [Compound 5, 6-[4-(4-Ethoxybenzoyl)-1-piperazinyl]-3,4-dihydrocarbostyril]",Induction of differentiation promoting effect,HL-60 cells [2],232
"COc1cc(C(=O)N2CCN(c3ccc4c(c3)NC(=O)CC4)CC2)cc(OC)c1OC [Compound 3, 7-[4-(3,4,5-Trimethoxybenzoyl)-1-piperazinyl]-3,4-dihydrocarbostyril]",Induction of differentiation promoting effect,HL-60 cells [2],384
GM-CSF: granulocyte macrophage colony stimulating factor,Repression of apoptosis,apoptosis,repress apoptosis
"COc1ccc(C(=O)N2CCN(c3ccc4c(c3)NC(=O)CC4)CC2)cc1OC [Compound 4, 7-[4-(3,4-Dimethoxybenzoyl)-1-piperazinyl]-3,4-dihydrocarbostyril]",Induction of differentiation promoting effect,HL-60 cells [2],383
"G-CSF: granulocyte colony stimulating factor (protein, UniProt P09919 31-207, looked up) Granulocyte …: TPLGPASSLPQSFLLKCLEQVRKIQGDGAALQEKLVSECATYKLCHPEELVLLGHSLGIPWAPLSSCPSQALQLAGCLSQLHSGLFLYQGLLQALEGISPELGPTLDTLQLDVADFATTIWQQMEELGMAPALQPTQGAMPAFASAFQRRAGGVLVASHLQSFLEVSYRVLRHLAQP",Repression of apoptosis,apoptosis,repress apoptosis
"lymphotoxin (LT): lymphotoxin (LT) (protein, UniProt P01374 35-205, looked up) Lymphotoxin-alpha: LPGVGLTPSAAQTARQHPKMHLAHSTLKPAAHLIGDPSKQNSLLWRANTDRAFLQDGFSLSNNSLLVPTSGIYFVYSQVVFSGKAYSPKATSSPLYLAHEVQLFSSQYPFHVPLLSSQKMVYPGLQEPWLHSMYHGAAFQLTQGDQLSTHTDGIPHLVLSPSTVFFGAFAL",Induction of apoptosis,apoptosis,induced
